Data as given in patent EP0054589B1, “Organic phosphoric acid ester derivatives, a process for preparing the same and insecticidal, miticidal or nematocidal compositions containing the same” (priority 1980, dated 1982).
Read-outs that look alike come from different tables or passages of the source.

Columns and labels:
[1] = system: egg plant; test: Phytotoxicity observed visually in the mite test on egg plant; assay type: in vivo; design: key: —: None; +: Slightly toxic; ++: Toxic; +++: Strongly toxic; settings: 500 ppm, observed visually on the 7th day after the application
Experimental: (§1) (A) An emulsifiable concentrate prepared as described in Formulation Example 1 and diluted to a predetermined concentration was sprayed using a spray-gun on a seedling of an egg plant placed in a pot of 12 cm in diametre to which plant carmine mites resistant to Kelthane were parasitic. After drying in air, seedlings were kept in a green house, and the number of living insects was recorded on the 7th, 14th, 21 st and 28th day from the day of application to determine the control effects. Three pots were used for each treatment. The control effect was assessed by the formula described in TEST EXAMPLE 7 above. Further, phytotoxicity was observed visually on the 7th day after the application.
as §1, with “(B) An” for “(A) An”, “Example 3” for “Example 1”, “in diameter” for “in diametre”, “in Test” for “in TEST”

[2] = system: carmine mites resistant to Kelthane; test: Miticidal effect on carmine mite resistant to Kelthane (sprayed egg plant seedling); assay type: in vivo, Tetranychus cinnabarius; settings: 500 ppm; for Number of Living Mites after Application 7th Day / Number of Living Mites after Application 14th Day / Number of Living Mites after Application 21st Day / Number of Living Mites after Application 28th Day: egg plant seedling; for Control Effect (%): from mite counts on 7th, 14th, 21st and 28th day
Experimental: as §1
as §1, with “(B) An” for “(A) An”, “Example 3” for “Example 1”, “in diameter” for “in diametre”, “in Test” for “in TEST”

[3] = system: apple leaf miner; test: Insecticidal effect on apple leaf miner (sprayed apple seedling); assay type: in vivo, Lithocolletis ringoniella; settings: Phyllonorycter ringoniella, 336 h, 500 ppm, fourteen days after spraying
How it was run: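 Wettable-powder suspensions were sprayed onto potted apple seedlings infested with newly hatched leaf miner larvae, then kept in a greenhouse.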

[4] = system: tobacco cutworm; test: Insecticidal effect on tobacco cutworm (cabbage leaf dip); assay type: in vivo, Prodenia litura; settings: after 48 hours, 25°C
How it was run: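 Cabbage leaves dipped in water-diluted emulsifiable concentrate (two formulations, tests A and B) and air-dried were fed to 3rd-instar tobacco cutworm larvae at 25°C. Percent mortality scored after 48 hours; 3 replicates of 30 insects per compound.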

[5] = system: Tomato; test: Phytotoxicity on various crops; assay type: in vivo; design: key: Symbol — indicates that no toxicity was observed; settings: 500 ppm sprayed; checked visually after 10 days
How it was run: (§2)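 Test compounds, formulated as emulsifiable concentrates and brought to 500 ppm active in water, were sprayed onto the crops in sufficient amount. After ten days in the greenhouse, crop injury was inspected visually.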

[6] = system: Kidney Bean; test: Phytotoxicity on various crops; assay type: in vivo; design: key: Symbol — indicates that no toxicity was observed; settings: 500 ppm sprayed; checked visually after 10 days
How it was run: as §2

[7] = system: Cucumber; test: Phytotoxicity on various crops; assay type: in vivo; design: key: Symbol — indicates that no toxicity was observed; settings: 500 ppm sprayed; checked visually after 10 days
How it was run: as §2

[8] = system: Apple; test: Phytotoxicity on various crops; assay type: in vivo; design: key: Symbol — indicates that no toxicity was observed; settings: 500 ppm sprayed; checked visually after 10 days
How it was run: as §2

[9] = system: Green Pepper; test: Phytotoxicity on various crops; assay type: in vivo; design: key: Symbol — indicates that no toxicity was observed; settings: 500 ppm sprayed; checked visually after 10 days
How it was run: as §2

[10] = system: egg plant; test: Phytotoxicity on various crops; assay type: in vivo; design: key: Symbol — indicates that no toxicity was observed; settings: 500 ppm sprayed; checked visually after 10 days
How it was run: as §2

[11] = system: Rice; test: Phytotoxicity on various crops; assay type: in vivo; design: key: Symbol — indicates that no toxicity was observed; settings: 500 ppm sprayed; checked visually after 10 days
How it was run: as §2

[12] = system: Cotton; test: Phytotoxicity on various crops; assay type: in vivo; design: key: Symbol — indicates that no toxicity was observed; settings: 500 ppm sprayed; checked visually after 10 days
How it was run: as §2

[13] = system: Cabbage; test: Phytotoxicity on various crops; assay type: in vivo; design: key: Symbol — indicates that no toxicity was observed; settings: 500 ppm sprayed; checked visually after 10 days
How it was run: as §2

[14] = system: Beet; test: Phytotoxicity on various crops; assay type: in vivo; design: key: Symbol — indicates that no toxicity was observed; settings: 500 ppm sprayed; checked visually after 10 days
How it was run: as §2

[15] = system: Tea; test: Phytotoxicity on various crops; assay type: in vivo; design: key: Symbol — indicates that no toxicity was observed; settings: 500 ppm sprayed; checked visually after 10 days
How it was run: as §2

[16] = system: carmine mites; test: Miticidal effect on carmine mite (sprayed kidney bean seedling); assay type: in vivo, Tetranychus cinnabarius; settings: 500 ppm
Experimental: An emulsifiable concentrate prepared as described in Formulation Example 1 and diluted to a predetermined concentration was sprayed using a spray-gun on a seedling of a kidney bean placed in a pot of 12 cm in diameter to which plant carmine mites were parasitic. After drying in air, seedlings were kept in a green house, and the number of living insects was recorded on the 7th, 14th, 21st and 28th day from the day of application to determine the control effects. Three pots were used for each treatment. The control effect was assessed by the following formula: [formula] • wherein Σ indicates sum and Cb, Tb, Cai and Tai have the following meanings. • Cb: Number of living mites in non-treated sample before application. • Tb: Number of living mites in treated sample before application. • Cai: Number of living mites in non-treated sample 7th, 14th, 21 st or 28th day from the application. • Tai: Number of living mites in treated sample 7th, 14th, 21st or 28th day from the application.

[17] = Table 13, Formulation Example 1
[18] = Table 10, wettable powder as Formulation Example 5, read-out: Percent Morality (%)
[19] = Table 3, 500 ppm, emulsifiable concentrate as Formulation Example 1
[20] = Table 14, Formulation Example 3

Compound | Phytotoxicit ([1]; Table 13) | Number of Living Mites after Application 7th Day [2, 17] | Number of Living Mites after Application 14th Day [2, 17] | Number of Living Mites after Application 21st Day [2, 17] | Number of Living Mites after Application 28th Day [2, 17] | Control Effect (%) ([2]; Table 13) | mortality at 500 ppm [3, 18] [%] | Percent Mortality (%) [4, 19] [%] | Phytotoxicity: Tomato [5] | Phytotoxicity: Kidney Bean [6] | Phytotoxicity: Cucumber [7] | Phytotoxicity: Apple [8] | Phytotoxicity: Green Pepper [9] | Phytotoxicity: Egg Plant [10] | Phytotoxicity: Rice [11] | Phytotoxicity: Cotton [12] | Phytotoxicity: Cabbage [13] | Phytotoxicity: Beet [14] | Phytotoxicity: Tea [15] | Control Effect (%) [16] [%] | further results
CCCSP(=S)(OC)Oc1ccc2c(c1)OC(C)=CC2(C)C (stereo not drawn) [Compound No. 9, 0-methyl-S-propyl-(2,4,4-trimethyl-1,4-benzopyran-7-yl)phosphorodithioate] | — | 0 | 0 | 0 | 0 | 100 | 100 | 100 | — | — | — | — | — | — | — | — | — | — | — | 99.0 | Number of Living Mites after Application 7th Day [16]: 0; Number of Living Mites after Application 14th Day [16]: 0; Number of Living Mites after Application 21st Day [16]: 0; Number of Living Mites after Application 28th Day [16]: 8
CCCSP(=S)(OCC)Oc1ccc2c(c1)OC(C)=CC2(C)C (stereo not drawn) [Compound No. 10] | — | 0 | 0 | 4 | 16 | 99.0 | 100 | 100 | — | — | — | — | — | — | — | — | — | — | — | 97.6 | Phytotoxicit ([1]; Table 14): —; Number of Living Mites after Application 7th Day [2, 20]: 0; Number of Living Mites after Application 14th Day [2, 20]: 0; Number of Living Mites after Application 21st Day [2, 20]: 0; Number of Living Mites after Application 28th Day [2, 20]: 12; Control Effect (%) ([2]; Table 14): 98.7%; Number of Living Mites after Application 7th Day [16]: 0; Number of Living Mites after Application 14th Day [16]: 0; Number of Living Mites after Application 21st Day [16]: 2; Number of Living Mites after Application 28th Day [16]: 19
CCCSP(=O)(OCC)Oc1ccc2c(c1)OC(C)(C)C=C2C (stereo not drawn) [Compound No. 20, O-ethyl-S-propyl-0-(2,2,4-trimethyl-1,2-benzopyran-7-yl)phosphorothioate] |  |  |  |  |  |  | 100 | 100 | — | — | — | — | — | — | — | — | — | — | — |  | mortality at 500 ppm ([3]; Table 11, wettable powder as Formulation Example 7, read-out: Percent Mortality (%)): 96.6%; Percent Mortality (%) ([4]; Table 4, 100 ppm, emulsifiable concentrate as Formulation Example 3): 100%
